The values that follow are results of earlier work, collected in patent US10028967B2, “Medicament” (Symrise AG, priority 2014, dated 2018).

The conditions of this series: oral phenylephrine, compared to intravenous pseudoephedrine; reduced and variable.

For `CNC[C@H](O)c1cccc(O)c1` [Phenylephrine], the bioavailability entry is recorded as “up to 38%”.
